# From patent US20250154169A1, “COMPOUNDS AND METHODS FOR MODULATING SPLICING” (REMIX THERAPEUTICS INC., priority 2021, published 2025)
# pIC50: −log10 of the molar value. Like-named read-outs stand apart in the source and are kept apart here.
# Legend:
# Format in all cases: cell-based, human
# [1] = tested on: HTT mRNA; experiment: Splicing RT-qPCR gene panel, HTT canonical junction (CJ) mRNA; details: Tables 4A/4B, read-out: HTT (IC50, decrease in CJ mRNA, gene panel)
# In short: (§1)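 Read-out: RT-qPCR of the canonical exon-exon junction transcript, ΔCt vs housekeeping gene, normalized to DMSO, RQ = 2^(−ΔΔCt), converted to percentage response. Cells, A673 or K562, were dosed 24 h at 37 °C across 11 3-fold dilutions from 10 uM.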
# [2] = tested on: Target C mRNA; experiment: Splicing RT-qPCR gene panel, Target C canonical junction (CJ) mRNA; details: Tables 4A/4B, read-out: Target C (IC50, decrease in CJ mRNA, gene panel)
# In short: as §1
# [3] = tested on: HTT mRNA; experiment: Splicing RT-qPCR assay, HTT canonical (CJ) and alternative (AJ) junction mRNA; details: A673 or K562 cells, 24 hours compound treatment; for pIC50: read-out: HTT CJ (IC50, decrease in canonical junction mRNA); for AC50: read-out: HTT AJ (AC50, increase in alternative junction mRNA)
# In short: (§2)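 One-step RT-qPCR on cell lysates, CJ and AJ isoforms quantified; housekeeping normalization GAPDH/GUSB (K562) or PPIA (A673). Cells: A673 in DMEM/10% FBS or K562 in IMDM/10% FBS. Compounds 11-pt 3-fold, top 10 uM, 24 h, 37 °C, 5% CO2.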
# [4] = tested on: SMN2 mRNA; experiment: Splicing RT-qPCR gene panel, SMN2 canonical junction (CJ) mRNA; details: Tables 4A/4B, read-out: SMN2 (IC50, decrease in CJ mRNA, gene panel)
# In short: as §1
# [5] = tested on: MYB mRNA; experiment: Splicing RT-qPCR assay, MYB canonical (CJ) and alternative (AJ) junction mRNA; details: for AC50: read-out: MYB AJ (AC50, increase in alternative junction mRNA)
# In short: as §2
# [6] = Homo sapiens, 24 h, A673 or K562 cells, 24 hours compound treatment, RT-qPCR
# [7] = Homo sapiens, 24 h, A673 or K562 cells, 24 hours compound treatment, RT-qPCR, read-out: MYB CJ (IC50, decrease in canonical junction mRNA)
# [8] = Homo sapiens, Tables 4A/4B, canonical junction qPCR panel, read-out: MYB (IC50, decrease in CJ mRNA, gene panel)
# [9] = A673 or K562 cells, 24 hours compound treatment, RT-qPCR
# [10] = A673 or K562 cells, 24 hours compound treatment, RT-qPCR, read-out: MYB CJ (IC50, decrease in canonical junction mRNA)
Compound,pIC50 ([1]; Homo sapiens),pIC50 ([2]; Homo sapiens),"pIC50 ([3]; Homo sapiens, 24 h)",AC50 ([3]; Homo sapiens) [nM],pIC50 ([4]; Homo sapiens),"AC50 [5, 6] [nM]","pIC50 [5, 7]","pIC50 [5, 8]",pIC50 [1],pIC50 [2],AC50 [3] [nM],pIC50 [3],pIC50 [4],"AC50 [5, 9] [nM]","pIC50 [5, 10]","pIC50 ([5]; Tables 4A/4B, canonical junction qPCR panel, read-out: MYB (IC50, decrease in CJ mRNA, gene panel))"
"Cc1cn2cc(NC(=O)c3ccc(N4CCNCC4)c4cn(C)nc34)c(=O)n(C)c2n1 [Compound 451, N-{2,8-dimethyl-7-oxoimidazo[1,2-a]pyrimidin-6-yl}-2-methyl-4-(piperazin-1-yl) indazole-7-carboxamide]",< 5.00,< 5.00,< 5.00,> 10000,< 5.00,1000 to 10000,5.00 to 6.00,< 5.00,,,,,,,,
"Cc1cn2cc(NC(=O)c3ccc(N4CCNCC4)c4cn(C)nc34)c(C#N)cc2n1 [Compound 452, N-{7-cyano-2-methylimidazo[1,2-a]pyridin-6-yl}-2-methyl-4-(piperazin-1-yl) indazole-7-carboxamide]",,,,,,,,,< 5.00,< 5.00,> 10000,< 5.00,6.00 to 7.00,1000 to 10000,5.00 to 6.00,5.00 to 6.00
"CCn1cc2c(N3CCNC(CF)C3)ccc(C(=O)Nc3cc(F)c4nc(C)cn4c3)c2n1 (stereo not shown) [Compound 453, 2-ethyl-N-{8-fluoro-2-methylimidazo[1,2-a]pyridin-6-yl}-4-[3-(fluoromethyl)piperazin-1-yl]indazole-7-carboxamide]",< 5.00,< 5.00,< 5.00,> 10000,6.00 to 7.00,1000 to 10000,5.00 to 6.00,5.00 to 6.00,,,,,,,,
"CCn1cc2c(C3OCC(C)(N)CO3)ccc(C(=O)Nc3cc(F)c4nc(C)cn4c3)c2n1 (stereo not shown) [Compound 454, 4-(5-amino-5-methyl-1,3-dioxan-2-yl)-2-ethyl-N-{8-fluoro-2-methylimidazo[1,2-a]pyridin-6-yl}indazole-7-carboxamide]",< 5.00,< 5.00,5.00 to 6.00,1000 to 10000,> 7.00,1000 to 10000,6.00 to 7.00,5.00 to 6.00,,,,,,,,
"CCn1cc2c(C3OCC(N)CO3)ccc(C(=O)Nc3cc(F)c4nc(C)cn4c3)c2n1 (stereo not shown) [Compound 455, 4-(5-amino-1,3-dioxan-2-yl)-2-ethyl-N-{8-fluoro-2-methylimidazo[1,2-a]pyridin-6-yl}indazole-7-carboxamide]",5.00 to 6.00,5.00 to 6.00,< 5.00,> 10000,6.00 to 7.00,> 10000,< 5.00,6.00 to 7.00,,,,,,,,
COc1c(NC(=O)c2ccc(N3CCNCC3)c3cn(C)nc23)cc(C)c2nn(C)cc12 [Compound 456],< 5.00,< 5.00,< 5.00,> 10000,< 5.00,1000 to 10000,< 5.00,< 5.00,,,,,,,,
"Cc1cn2c(n1)CCC(NC(=O)c1ccc(N3CCNCC3)c3cn(C)nc13)C2 (stereo not shown) [Compound 457, 2-methyl-N-{2-methyl-5H,6H,7H,8H-imidazo[1,2-a]pyridin-6-yl}-4-(piperazin-1-yl) indazole-7-carboxamide]",< 5.00,< 5.00,< 5.00,> 10000,< 5.00,> 10000,< 5.00,< 5.00,,,,,,,,
"Cc1nc2c(F)cc(NC(=O)c3ccc(N4CCNCC4)c4cn(C)nc34)cn2c1C [Compound 458, N-{8-fluoro-2,3-dimethylimidazo[1,2-a]pyridin-6-yl}-2-methyl-4-(piperazin-1-yl) indazole-7-carboxamide]",< 5.00,< 5.00,> 7.00,100 to 1000,< 5.00,< 100,> 7.00,< 5.00,,,,,,,,
"CCNC1CCN(c2ccc(C(=O)Nc3cn4cc(C)nc4c(F)c3OC)c3nn(C)cc23)CC1 [Compound 459, 4-[4-(ethylamino)piperidin-1-yl]-N-{8-fluoro-7-methoxy-2-methylimidazo [1,2-a]pyridin-6-yl}-2-methylindazole-7-carboxamide]",> 7.00,5.00 to 6.00,6.00 to 7.00,100 to 1000,> 7.00,< 100,> 7.00,> 7.00,,,,,,,,
CCNC1CCN(c2cc(F)c(C(=O)Nc3cc(F)c4nc(C)cn4c3)c3nn(C)cc23)CC1 [Compound 460],6.00 to 7.00,6.00 to 7.00,> 7.00,100 to 1000,> 7.00,< 100,> 7.00,> 7.00,,,,,,,,
"Cc1cn2cc(NC(=O)c3ccc(N4CC[C@@H](NC5(CF)CC5)C4)c4cn(C)nc34)cc(F)c2n1 [Compound 461, N-{8-fluoro-2-methylimidazo[1,2-a]pyridin-6-yl}-4-[(3R)-3-{[1-(fluoromethyl)cyclopropyl]amino}pyrrolidin-1-yl]-2-methylindazole-7-carboxamide]",5.00 to 6.00,< 5.00,5.00 to 6.00,> 10000,> 7.00,100 to 1000,> 7.00,> 7.00,,,,,,,,
"Cc1nc2c(F)cc(NC(=O)c3ccc(N4CCNCC4)c4cn(C)nc34)cn2n1 [Compound 462, N-{8-fluoro-2-methyl-[1,2,4]triazolo[1,5-a]pyridin-6-yl}-2-methyl-4-(piperazin-1-yl) indazole-7-carboxamide]",6.00 to 7.00,< 5.00,6.00 to 7.00,100 to 1000,> 7.00,< 100,> 7.00,> 7.00,,,,,,,,
"CCn1cc2c(N3CC[C@@H](NC)C3)ccc(C(=O)Nc3cc(F)c4nc(C)cn4c3)c2n1 [Compound 469, (R)-2-ethyl-N-(8-fluoro-2-methylimidazo[1,2-a]pyridin-6-yl)-4-(3-(methylamino)pyrrolidin-1-yl)-2H-indazole-7-carboxamide]",< 5.00,< 5.00,,,< 5.00,,,< 5.00,,,> 10000,< 5.00,,> 10000,< 5.00,
"Cc1nnc2n1CC(NC(=O)c1ccc(N3CCNCC3)c3cn(C)nc13)CC2 (stereo not shown) [Compound 470, 2-methyl-N-{3-methyl-5H,6H,7H,8H-[1,2,4]triazolo[4,3-a]pyridin-6-yl}-4-(piperazin-1-yl) indazole-7-carboxamide]",< 5.00,< 5.00,< 5.00,> 10000,< 5.00,> 10000,< 5.00,< 5.00,,,,,,,,
"CCn1cc2c(N3CC[C@H](N(C)C)C3)cc(F)c(C(=O)Nc3cc(F)c4nc(C)cn4c3)c2n1 [Compound 472, 4-[(3S)-3-(dimethylamino)pyrrolidin-1-yl]-2-ethyl-6-fluoro-N-{8-fluoro-2-methylimidazo[1,2-a]pyridin-6-yl}indazole-7-carboxamide]",< 5.00,< 5.00,< 5.00,1000 to 10000,> 7.00,< 100,> 7.00,> 7.00,,,,,,,,
"CCn1cc2c(N3CC[C@@H](N(C)C)C3)cc(F)c(C(=O)Nc3cc(F)c4nc(C)cn4c3)c2n1 [Compound 473, 4-[(3R)-3-(dimethylamino)pyrrolidin-1-yl]-2-ethyl-6-fluoro-N-{8-fluoro-2-methylimidazo[1,2-a]pyridin-6-yl}indazole-7-carboxamide; bis(trifluoroacetic acid)]",5.00 to 6.00,< 5.00,5.00 to 6.00,1000 to 10000,> 7.00,< 100,> 7.00,> 7.00,,,,,,,,
"CCn1cc2c(N3CCNCC3)cc(F)c(C(=O)Nc3cc(F)c4nc(C)cn4c3)c2n1 [Compound 474, 2-ethyl-6-fluoro-N-{8-fluoro-2-methylimidazo[1,2-a]pyridin-6-yl}-4-(piperazin-1-yl) indazole-7-carboxamide]",6.00 to 7.00,5.00 to 6.00,> 7.00,100 to 1000,> 7.00,< 100,> 7.00,> 7.00,,,,,,,,
